Measured values as given in patent US9440971B2, “Solid state forms of vemurafenib hydrochloride” (ratiopharm GmbH, priority 2013, dated 2016).
Structures can show the parent of a compound that is named as a salt. Where two headings read alike, the source gives them in different places.

Key:
[1] = as observed in WO 2010/114928 and WO 2010/129570; cited from earlier work
[2] = conditions not given; cited from earlier work
[3] = Storage stability of the crystalline form at controlled temperature and relative humidity; assay type: physicochemical; details: up to at least 24 weeks, hydrochloride
Excerpt: Particularly, crystalline Vemurafenib HCl form II has high chemical purity and excellent stability properties. […] Therefore, the crystalline Vemurafenib HCl form II may be used to prepare an oral formulation which is stable and has a relatively small tablet or capsule size as the molar ratio of Vemurafenib to HCl is about 1:1, which is highly advantageous for preparing pharmaceutical compositions with high drug load.

Solubility = assay type: physicochemical
[4] = 25° C. and 60% relative humidity (RH)

stability upon storage [3, 4]	stability upon storage ([3]; 30° C./65% RH)	solubility (Solubility)	SMILES	solubility [1]	stability of amorphous form [2]
			CCCS(=O)(=O)Nc1ccc(F)c(C(=O)c2c[nH]c3ncc(-c4ccc(Cl)cc4)cc23)c1F [Vemurafenib, propane-1-sulfonic acid {3-[5-(4-chlorophenyl)-1H-pyrrolo[2,3-b]pyridine-3-carbonyl]-2,4-difluoro-phenyl}-amide]	extremely low solubility	
			CCCS(=O)(=O)Nc1ccc(F)c(C(=O)c2c[nH]c3ncc(-c4ccc(Cl)cc4)cc23)c1F [Amorphous Vemurafenib]		not stable
converts to Vemurafenib free base	converts to Vemurafenib free base		CCCS(=O)(=O)Nc1ccc(F)c(C(=O)c2c[nH]c3ncc(-c4ccc(Cl)cc4)cc23)c1F [crystalline Vemurafenib HCl form I, Vemurafenib hydrochloride]		
stable	stable	good solubility	CCCS(=O)(=O)Nc1ccc(F)c(C(=O)c2c[nH]c3ncc(-c4ccc(Cl)cc4)cc23)c1F [crystalline Vemurafenib HCl form II, Vemurafenib hydrochloride]		
